“Also recorded” adds a separate entry of the source. Blank lines part the entries; values can stand above or below the molecule they belong to.
Assays:
[1] = tested on: A549 cells; assay: MTT assay (cell viability); type: cell-based, human
Text: (§1) In addition to the commonly used cell lines (A549 and H1975), we also established several cell lines including CL83, CL141, CL152, CL25, and CL97 cell lines which were isolated from the pleural effusion of NSCLC patients at the National Taiwan University Hospital. The investigation was approved by the Institutional Review Board of the National Taiwan University Hospital. Informed consent was obtained before pleural effusion was collected.

[2] = tested on: A549 cells; assay: Clonogenic assay; type: cell-based, human
Procedure: The NSCLC cancer cell lines, A549, H1975, CL25, CL83, CL97, CL141, and CL152 were maintained in RPMI medium. Tested cells were seeded respectively in 6 well plates with 10^4 cells per well for 14 days. Each well contained 10 ml RPMI medium as cultured condition for NSCLC cells. […] Trifluoperazine and other tested drugs were added 24 hours after seeding of the cells. The medium and trifluoperazine were changed once on day 4. After the treatments, cells were washed with PBS, and the colonies were fixed with fix solution (acetic acid:methanol=1:3) and stained with 0.5% crystal violet in methanol. After removing the crystal violet carefully and rinse with tap water, the colonies were counted manually.

[3] = tested on: CL141 cells; assay: Side population analysis (Hoechst 33342, flow cytometry); type: cell-based, human
Procedure: (§2) Single-cell suspensions of cells were detached from dishes with Trypsin-EDTA (Invitrogen) and suspended at 1×10^6 cells/mL in Hank's balanced salt solution (HBSS) supplemented with 3% fetal calf serum and 10 mM Hepes. […] After 90 minutes incubation, the cells were centrifuged immediately for 5 minutes at 300 g and 4° C. and resuspended in ice-cold HBSS. The cells were kept on ice to inhibit efflux of the Hoechst dye, and 1 μg/mL propidium iodide (BD) was added to discriminate dead cells. Finally, these cells were filtered through a 40 μm cell strainer (BD) to obtain single-suspension cells. Cell dual-wavelength analysis and purification were performed on a dual-laser FACS Vantage SE (BD). […] A 610 nm dichroic mirror short-pass (DMSP) was used to separate the emission wavelengths. PI-positive (dead) cells were excluded from the analysis.

[4] = tested on: CL141 cells; assay: MTT assay (cell viability); type: cell-based; details: Homo sapiens; CL141 cell line, 48 hour incubation; read-out: IC50 for trifluoperazine
Text: as §1

[5] = tested on: CL152 cells; assay: MTT assay (cell viability); type: cell-based; details: Homo sapiens; CL152 cell line, 48 hour incubation; read-out: IC50 for trifluoperazine
Text: as §1

[6] = tested on: CL25 cells; assay: MTT assay (cell viability); type: cell-based; details: Homo sapiens; CL25 cell line, 48 hour incubation; read-out: IC50 for trifluoperazine
Text: as §1

[7] = tested on: CL83 cells; assay: MTT assay (cell viability); type: cell-based; details: Homo sapiens; CL83 cell line, 48 hour incubation; read-out: IC50 for trifluoperazine
Text: as §1

[8] = tested on: CL97 cells; assay: MTT assay (cell viability); type: cell-based; details: Homo sapiens; CL97 cell line, 48 hour incubation; read-out: IC50 for trifluoperazine
Text: as §1

[9] = tested on: H1975 cells; assay: MTT assay (cell viability); type: cell-based; details: Homo sapiens, NCI-H1975; H1975 cell line, 48 hour incubation; read-out: IC50 for trifluoperazine
Text: as §1

[10] = tested on: CL83 cells; assay: Side population analysis (Hoechst 33342, flow cytometry); type: cell-based, human; details: 5 μM, untreated 1.54%
Procedure: as §2

[11] = tested on: CL97 cells; assay: as above; type: cell-based, human; details: 5 μM, untreated 1.9%
Procedure: as §2

[12] = tested on: CL141 cells; assay: Aldefluor assay (ALDH-positive cells); type: cell-based, human
Procedure: (§3) High aldehyde dehydrogenase (ALDH) enzyme activity was used to detect lung CSC populations in this study. The Aldefluor assay was performed according to the manufacturer's guidelines (StemCell Technologies). Briefly, single cells obtained from cell cultures were incubated in an Aldefluor assay buffer containing an ALDH substrate (bodipy-aminoacetaldehyde, BAAA) for 50 minutes at 37° C. As a negative control, a fraction of cells from each sample was incubated under identical conditions in the presence of an ALDH inhibitor (diethylaminobenzaldehyde, DEAB). Flow cytometry was used to measure the ALDH-positive cell population.

[13] = tested on: CL152 cells; assay: Aldefluor assay (ALDH-positive cells); type: cell-based, human; details: 5 μM, untreated 3.73%
Procedure: as §3

[14] = tested on: CL141 spheroids; assay: Soft agar assay (colony formation); type: cell-based, human; details: 12 days, control 92
Procedure: Freshly sorted CL141 side population (SP) and non-side population (NSP) cells were counted and plated in triplicate at 200 cells per well in six-well plates coated with 1% agarose. Anchorage-independent growth was assessed after incubation for 10-14 days in culture media with or without trifluoperazine (0, 5 and 10 μM), which was replaced every 4 days. Plates were stained with 0.005% crystal violet, and the colonies were counted manually under a microscope and photographed.

[15] = tested on: CL141 cells; assay: Annexin V/PI staining apoptosis analysis; type: cell-based, human; details: 48 hours, versus control cells
Procedure: […]. Annexin V/PI staining was performed after treatment with different dosages of trifluoperazine. Both early and late apoptotic cells were counted.

[16] = tested on: CL97 spheroids; assay: Western blotting analysis of cancer spheroids; type: cell-based, human
Procedure: (§4) Cells were lysed in lysis buffer (50 mM Tris-HCl, pH 7.4, 5 mM MgCl2, 1% Nonidet P-40, 150 mM NaCl, 1 mM phenylmethylsulfonyl fluoride). Total protein was isolated and subjected to SDS polyacrylamide gel electrophoresis and electrotransfered onto PVDF membranes (Millipore). Primary antibodies Bax, Bak, Bcl-2, XIAP, Mcl-1, Cleaved Caspase 9, Caspase 3, […], c-Myc, CD44, cyclin D1 were obtained from Cell Signaling, Met was purchased from Santa Cruz and CD133 was from Miltenyi Biotec, and secondary antibodies for anti-mouse and anti-rabbit horseradish preoxidase (HRP)-conjugation were from Chemicon International. The protein detection was performed with enhanced chemiluminescence (ECL™) method captured by a Luminescence Imaging System (LAS-4000™, Fuji Photo Film Co., Ltd).

[17] = tested on: CL141 spheroids; assay: Western blotting and immunochemical staining of cancer spheroids; type: cell-based, human; details: CL141 spheroids, 0, 2.5, 5 and 10 μM, 48 hours
Procedure: as §4

[18] = tested on: CL83 spheroids; assay: Tumor spheroid assay; type: cell-based, human; details: 48 hr
[19] = tested on: CL141 spheroids; assay: Tumor spheroid assay; type: cell-based, human; details: 48 hr
[20] = tested on: CL97 spheroids; assay: Tumor spheroid assay; type: cell-based, human; details: 48 hr
[21] = tested on: CL97-L2G cells; assay: Bulk lung tumor model, bioluminescent imaging; type: in vivo, NOD/SCID mice; details: 4 weeks, trifluoperazine 5 mg/kg/day i.p., gefitinib 150 mg/kg/day oral gavage, combination trifluoperazine 5 mg/kg/day i.p. + gefitinib 100 mg/kg/day oral
Procedure: For bulk lung tumor model, CL97-[…] cells were intravenously administered into the animals via tail vein at a concentration of 1×10^6 cells/100 μl PBS. One week post tumor injection, different treatment regimens were started. […] CL97-[…]-bearing mice (both bulk lung tumor and CSC models) were imaged weekly using the IVIS 200 system (Caliper Life Sciences). Data are expressed as fold change in total photon flux/initial total photon flux and were analyzed using Living Image 1.0 software (Caliper Life Sciences). Mice were humanely sacrificed at the end of experiments and lung tumor biopsies were obtained for further analysis.

[22] = tested on: CL97-L2G spheroids; assay: Prevention experiment, pretreated spheroids orthotopically injected into lung; type: in vivo, NOD/SCID mice; details: cells pre-treated with 5 μM overnight, versus vehicle-treated control
Procedure: (§5) . […] CL97-L2G-bearing mice (both bulk lung tumor and CSC models) were imaged weekly using the IVIS 200 system (Caliper Life Sciences). Data are expressed as fold change in total photon flux/initial total photon flux and were analyzed using Living Image 1.0 software (Caliper Life Sciences). Mice were humanely sacrificed at the end of experiments and lung tumor biopsies were obtained for further analysis.

[23] = tested on: CL97-L2G tumor samples; assay: Protein profiles of tumor biopsies (Western blot); type: in vivo, NOD/SCID mice; details: tumor biopsies of treated mice
Procedure: Total cell lysates were harvested from tumor biopsies of mice which received different treatments and their protein profiles were examined.
as §4, §5

[24] = tested on: CL141 spheroids; assay: Cisplatin response of spheroids versus parental cells (IC50, viability, caspase-3 activity); type: cell-based, human
Text: (§6) We selected three gefitinib-resistant NSCLC cell lines, CL141 (wild type EGFR), CL83 (wild type EGFR) and CL97 (EGFR-G719A+T790M acquired resistant mutation) to determine if trifluoperazine could sensitize these cells towards chemotherapeutic agents.

[25] = tested on: CL83 spheroids; assay: as above; type: cell-based, human
Text: as §6

[26] = tested on: CL97 spheroids; assay: as above; type: cell-based, human
Text: as §6

[27] = Homo sapiens, A549 cells, read-out: MTT assay (IC50)
[28] = A549 cells, read-out: MTT assay (IC50)

- IC50 [1, 28]: 5 to 10 µM
- IC50 [2]: 2.5 to 5 µM
Molecule: CN(C)CCCN1c2ccccc2Sc2ccc(Cl)cc21 [Chlorpromazine]
- Reduced side population [3]: Yes

- IC50 [1, 27]: > 10 µM
Molecule: CN(C)CCCN1c2ccccc2Sc2ccccc21 [Promazine]
- Reduced side population [3]: Yes

- IC50 ([1]; Homo sapiens, A549 cell line, read-out: IC50 for trifluoperazine): > 10 µM
- IC50 [1, 27]: > 10 µM
- IC50 [9]: 15 µM
- IC50 ([2]; Homo sapiens): 1.25 to 2.5 µM
Molecule: CN1CCN(CCCN2c3ccccc3Sc3ccc(C(F)(F)F)cc32)CC1 [Trifluoperazine]
- IC50 [4]: 8.5 µM
- IC50 [5]: 12 µM
- IC50 [6]: 13 µM
- IC50 [7]: 14 µM
- IC50 [8]: 7.2 µM
- Reduced side population [3]: Yes
- percentage of side population cells after treatment [10]: significantly decreased
- percentage of side population cells after treatment [11]: significantly decreased
- ALDH-positive cell population after treatment ([12]; CL141 cells, 5 μM, untreated 4.31%): 0.84%
- percentage of ALDH+ CL141 cells ([12]; trifluoperazine 10 μM alone or combined with 5 μM gefitinib): moderately decreased
- ALDH-positive cell population after treatment [13]: 1.08%
- mean colony number on soft agar ([14]; 5 μM): 32
- mean colony number on soft agar ([14]; 10 μM): 8
- Annexin V-positive cells [15]: dose-dependent increase
- Bax, Bak, cleaved PARP, caspase-3 and caspase-9 levels ([16]; CL97 cancer spheroids): increased dose-dependently
- anti-apoptotic Bcl-2, XIAP and Mcl-1 levels ([16]; CL97 cancer spheroids): decreased
- CD44 and CD133 expression ([16]; CL97 spheroids, 0, 2.5, 5 and 10 μM, 48 hours): dose-dependently down-regulated
- Cyclin D1, c-Myc and c-Met expression ([16]; CL97 spheroids, 48 hr): decreased
- CD44 and CD133 expression [17]: dose-dependently down-regulated
- size and number of spheroids [18]: dose-dependently decreased
- size and number of spheroids [19]: dose-dependently decreased
- size and number of spheroids [20]: dose-dependently decreased
- tumor burden (fold change in bioluminescence intensity) [21]: significantly reduced tumor burden; also recorded: significantly lower tumor burden
- in-situ tumor growth (fold change in BLI) [22]: significantly delayed and suppressed; also recorded: delayed and significantly reduced in-situ tumor growth
- Cyclin D1 expression in tumor samples [23]: suppressed
- activated form of caspase 3 in tumor samples [23]: increased

- IC50 [1, 27]: > 10 µM
Molecule: CN(C)CCCN1c2ccccc2Sc2ccc(C(F)(F)F)cc21 [Triflupromazine]
- Reduced side population [3]: Yes

- IC50 [1, 28]: > 10 µM
- IC50 [2]: 5 to 10 µM
Molecule: Promethazine
- Reduced side population [3]: No

The next lines start with the molecule.

Molecule: CC(=O)c1ccc2c(c1)N(CCCN(C)C)c1ccccc1S2 [Acepromazine]
- IC50 [1, 27]: > 10 µM
- IC50 ([2]; Homo sapiens): 1 to 2.5 µM
- Reduced side population [3]: No

Molecule: OCCN1CCN(CCCN2c3ccccc3Sc3ccc(C(F)(F)F)cc32)CC1 [Fluphenazine]
- Reduced side population [3]: No

Molecule: CN1CCN(CCCN2c3ccccc3Sc3ccc(Cl)cc32)CC1 [Prochlorperazine]
- Reduced side population [3]: No

Molecule: N.N.[Cl][Pt][Cl] [cisplatin]
- IC50 of spheroids compared with parental cells [24]: significantly higher IC50
- caspase-3 activity of spheroids compared with parental cells ([24]; 10 μM, 24 hours): lower caspase-3 activity
- viability of spheroids compared with parental cells ([24]; 10 μM, 24 hours): higher viability
- IC50 of spheroids compared with parental cells [25]: significantly higher IC50
- caspase-3 activity of spheroids compared with parental cells ([25]; 10 μM, 24 hours): lower caspase-3 activity
- viability of spheroids compared with parental cells ([25]; 10 μM, 24 hours): higher viability
- IC50 of spheroids compared with parental cells [26]: significantly higher IC50
- caspase-3 activity of spheroids compared with parental cells ([26]; 10 μM, 24 hours): lower caspase-3 activity
- viability of spheroids compared with parental cells ([26]; 10 μM, 24 hours): higher viability

Molecule: COc1cc2ncnc(Nc3ccc(F)c(Cl)c3)c2cc1OCCCN1CCOCC1 [gefitinib]
- tumor burden (fold change in bioluminescence intensity) [21]: not significantly different
- tumor burden (fold change in bioluminescence intensity) ([21]; listed as genfitnib): no effects in suppressing tumor recurrence
- c-Myc and β-catenin expression in tumor samples [23]: did not significantly influence

Molecule: Pherphenazine [Perphenazine]
- IC50 [1, 28]: > 10 µM
- IC50 [2]: 5 to 10 µM
- Reduced side population [3]: Yes

Molecule: Thioridazine
- Reduced side population [3]: Yes
